This passage reports Ki, inhibition and Activity results from ChEMBL document CHEMBL3352157, “1,2,4-triazolo[1,5-a]quinoxaline derivatives and their simplified analogues as adenosine A₃ receptor antagonists. Synthesis, structure-affinity relationships and molecular modeling studies” (Bioorg Med Chem, 2015).

SMILES strings stand for the structures. Active and inactive are the calls of the source. No cut-off for these calls is given here.

One assay deals with T1, Adenosine receptor A3 (Homo sapiens, UniProt P0DMS8).
T1 sequence (P0DMS8 whole entry): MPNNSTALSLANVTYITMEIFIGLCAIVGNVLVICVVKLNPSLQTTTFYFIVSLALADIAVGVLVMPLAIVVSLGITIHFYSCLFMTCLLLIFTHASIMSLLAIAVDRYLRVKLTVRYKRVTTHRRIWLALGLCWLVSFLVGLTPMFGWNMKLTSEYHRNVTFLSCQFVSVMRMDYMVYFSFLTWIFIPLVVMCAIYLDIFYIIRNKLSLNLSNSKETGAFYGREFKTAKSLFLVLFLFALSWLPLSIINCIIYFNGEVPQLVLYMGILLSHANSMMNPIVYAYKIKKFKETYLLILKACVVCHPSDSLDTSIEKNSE
Briefly: Displacement of [125I]AB-MECA from human adenosine A3 receptor expressed in CHO cells. Type of assay: cell-based. (In general: Loss of bound radioactivity is the signal in a displacement assay; it reports binding, not function.)

In the next assay the target is T2, Adenosine receptor A1 (Homo sapiens, UniProt P30542).
T2 sequence (P30542 whole entry): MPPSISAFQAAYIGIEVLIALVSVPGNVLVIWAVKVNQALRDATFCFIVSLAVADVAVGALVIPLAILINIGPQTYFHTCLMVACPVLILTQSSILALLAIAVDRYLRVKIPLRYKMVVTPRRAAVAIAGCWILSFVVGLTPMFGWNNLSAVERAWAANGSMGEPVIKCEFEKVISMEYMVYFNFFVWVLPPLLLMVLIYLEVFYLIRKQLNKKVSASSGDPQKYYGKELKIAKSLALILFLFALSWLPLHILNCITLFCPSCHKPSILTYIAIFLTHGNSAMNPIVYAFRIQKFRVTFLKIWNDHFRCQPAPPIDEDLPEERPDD
Briefly: Displacement of [3H]DPCPX from human adenosine A1 receptor expressed in CHO cells. Type of assay: cell-based.

Assay [1] has as its target T3, Adenosine receptor A2a (Homo sapiens, UniProt P29274). As to the kind of experiment: Displacement of [3H]NECA from human adenosine A2A receptor expressed in CHO cells at 10 uM. Type of assay: cell-based.
Assay [2] addresses T4, Adenosine receptor A2b (Homo sapiens) (UniProt P29275).
T4 sequence (whole entry): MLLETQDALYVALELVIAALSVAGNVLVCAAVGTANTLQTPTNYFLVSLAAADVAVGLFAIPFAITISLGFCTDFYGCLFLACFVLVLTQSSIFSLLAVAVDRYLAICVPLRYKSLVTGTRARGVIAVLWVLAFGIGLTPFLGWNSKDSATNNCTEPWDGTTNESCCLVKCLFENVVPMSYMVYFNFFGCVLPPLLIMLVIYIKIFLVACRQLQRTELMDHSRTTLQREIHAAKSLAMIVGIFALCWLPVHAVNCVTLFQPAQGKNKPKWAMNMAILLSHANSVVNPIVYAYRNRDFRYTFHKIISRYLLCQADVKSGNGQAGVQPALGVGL
Briefly: Agonist activity at human recombinant adenosine A2B receptor expressed in CHO cells assessed as cAMP accumulation at 10 uM after 15 mins by liquid scintillation counting analysis. Type of assay: functional, cell-based. A general note: Cyclic AMP is a second messenger, typically raised through Gs and lowered through Gi signalling.

Assay [3] addresses T4, Adenosine receptor A2b (Homo sapiens). Briefly: Antagonist activity at human recombinant adenosine A2B receptor expressed in CHO cells assessed as inhibition of NECA-induced cAMP accumulation measured as cAMP level at 10 uM incubated for 15 mins prior to NECA challenge measured after 30 mins by liquid scintillation counting analysis relative to control. The assay is classed as functional, cell-based. The arrangement: scale not given: the % may be the effect or the level left.

Assay [4] deals with T5, Adenosine receptor A1 (Homo sapiens) (UniProt P30542).
T5 sequence (whole entry): T2 sequence (P30542 whole entry)
Briefly: Displacement of [3H]DPCPX from human adenosine A1 receptor expressed in CHO cells at 10 uM. The assay is classed as cell-based.

Assay [5] concerns the target T6, Adenosine receptor A3 (Homo sapiens) (UniProt P0DMS8).
T6 sequence (whole entry): T1 sequence (P0DMS8 whole entry)
Briefly: Displacement of [125I]AB-MECA from human adenosine A3 receptor expressed in CHO cells at 1 uM. The assay is classed as cell-based.

The target in assay [6] is T3, Adenosine receptor A2a. Briefly: Displacement of [3H]NECA from human adenosine A2A receptor expressed in CHO cells. Type of assay: cell-based.

T3 sequence (P29274 whole entry): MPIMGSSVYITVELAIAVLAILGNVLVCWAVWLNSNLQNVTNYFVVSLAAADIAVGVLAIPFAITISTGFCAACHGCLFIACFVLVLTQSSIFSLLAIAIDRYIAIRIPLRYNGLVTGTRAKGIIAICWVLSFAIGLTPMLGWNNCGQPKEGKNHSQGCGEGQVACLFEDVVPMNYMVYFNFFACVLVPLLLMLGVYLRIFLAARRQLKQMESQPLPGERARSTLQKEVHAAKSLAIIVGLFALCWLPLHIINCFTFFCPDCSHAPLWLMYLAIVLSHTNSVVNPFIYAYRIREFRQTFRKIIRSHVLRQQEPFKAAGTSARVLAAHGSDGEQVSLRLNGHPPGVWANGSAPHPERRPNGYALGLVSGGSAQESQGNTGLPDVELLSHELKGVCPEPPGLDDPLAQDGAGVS

As to `CCC(=O)N1Cc2nc(-c3ccc(OC)cc3)nn2-c2cc(C)ccc21`, the inhibitory constant (Ki) (as a rule, the dissociation constant of the complex between target and ligand, obtained from inhibition or displacement) stood at 25.1 nM at Adenosine receptor A3 and 1540 nM at Adenosine receptor A1. For the same compound, at Adenosine receptor A2a [1], the inhibition (in general, how much of the control response was suppressed) is 6%. Besides, in assay [2], the outcome was inactive. In addition, the Activity in assay [3] turned out to be 102%.

For `COc1ccc(-c2nc3cnc4ccc(C)cc4n3n2)cc1`, the values for the Ki at Adenosine receptor A3 and on Adenosine receptor A1 were 26.6 nM and 2020 nM, respectively. Also, the inhibition at Adenosine receptor A2a [1] amounted to 30%. Besides, in assay [2], the result was inactive. The Activity in assay [3] was 42.6%.

Take `COC(=O)N1Cc2nc(-c3ccccc3)nn2-c2ccccc21`: affinity on Adenosine receptor A3 was put at a Ki of 245 nM. In addition, the inhibition amounted to 34% in assay [4] and 50% at Adenosine receptor A2a [1].

On to `COc1ccc(-c2nc(N(C(=O)c3ccccc3)C(=O)c3ccccc3)n(-c3ccccc3)n2)cc1`, for which the inhibition in assay [5] was 44%; in assay [4] it was 55%; on Adenosine receptor A2a [1], 13%.

Regarding `CCOC(=O)N1Cc2nc(-c3ccccc3)nn2-c2ccccc21`, the inhibition in assay [5] was determined as 22%; on Adenosine receptor A2a [1] it was 33%. Moreover, the affinity at Adenosine receptor A1, expressed as Ki, was 4600 nM.

In the case of `CCC(=O)N1Cc2nc(-c3ccccc3)nn2-c2cc(Cl)ccc21`, the Ki on Adenosine receptor A3 was determined as 72 nM. Also, the inhibition stood at 39% in assay [4] and 24% on Adenosine receptor A2a [1]. Besides, the outcome in assay [2] was inactive. In assay [3], the Activity stood at 63.7%.

Consider `C#CCOC(=O)N1Cc2nc(-c3ccc(OC)cc3)nn2-c2cc(C)ccc21`, for which, on Adenosine receptor A3, the affinity corresponds to a Ki of 23.3 nM. In addition, the inhibition in assay [4] is 49%; at Adenosine receptor A2a [1], 13%. Besides, the outcome in assay [2] was inactive. Moreover, in assay [3], the Activity stood at 109%.

As to `COc1ccc(-c2nc(N(C(C)=O)C(C)=O)n(-c3ccccc3)n2)cc1`, the inhibition in assay [5] was determined as 19%; in assay [4], 26%; at Adenosine receptor A2a [1] it was 4%.

Regarding `Cc1ccc2ncc3nc(-c4ccccc4)nn3c2c1`, the Ki at Adenosine receptor A3 is 23.9 nM; on Adenosine receptor A1, 1320 nM; on Adenosine receptor A2a [6] it was 2400 nM.

Take `Clc1ccc2ncc3nc(-c4ccccc4)nn3c2c1`: the Ki was 15.2 nM at Adenosine receptor A3 and 127 nM on Adenosine receptor A1. The compound also had an inhibition at Adenosine receptor A2a [1] of 19%.

Turning to `CCOC(=O)Nc1ccc(C)cc1-n1cnc(-c2ccc(OC)cc2)n1`, the inhibition in assay [5] was 34%; in assay [4], 6%; at Adenosine receptor A2a [1], 13%.

`CCOC(=O)N1Cc2nc(-c3ccc(OC)cc3)nn2-c2cc(C)ccc21`: the Ki on Adenosine receptor A3 is 39.4 nM; at Adenosine receptor A1, 86 nM. Further, the inhibition at Adenosine receptor A2a [1] is 2%.

For the compound `COc1ccc(-c2nc(NC(=O)c3ccccc3)n(-c3ccccc3)n2)cc1`, the inhibition in assay [5] was 50%; in assay [4], 25%; at Adenosine receptor A2a [1], 43%.

For the compound `COc1ccc(-c2nc3n(n2)-c2cc(C)ccc2N(C(=O)Cc2ccccc2)C3)cc1`, the affinity at Adenosine receptor A3 corresponds to a Ki of 54.8 nM. Also, the inhibition came to 39% in assay [4] and 0% at Adenosine receptor A2a [1]. Further, in assay [2], the outcome was inactive. Moreover, in assay [3], the Activity is 89.5%.

`CCC(=O)N1Cc2nc(-c3ccccc3)nn2-c2ccccc21`: the inhibition in assay [5] is 55%; on Adenosine receptor A2a [1], 52%. The same compound had a Ki at Adenosine receptor A1 of 1360 nM.

In turn, `COc1ccc(-c2nc3n(n2)-c2cc(C)ccc2N(C(=O)OCc2ccccc2)C3)cc1` registered a Ki on Adenosine receptor A3 of 231 nM. In addition, the inhibition was 45% in assay [4] and 4% at Adenosine receptor A2a [1].

As for `c1ccc(-c2nc3cnc4ccccc4n3n2)cc1`, on Adenosine receptor A3, the Ki worked out at 91.5 nM.

Turning to `C#CCOC(=O)Nc1ccc(C)cc1-n1cnc(-c2ccc(OC)cc2)n1`, the inhibition amounted to 35% in assay [5] and 16% at Adenosine receptor A2a [1].

With `CCOC(=O)N1Cc2nc(-c3ccccc3)nn2-c2cc(C)ccc21`, the values for the Ki on Adenosine receptor A3 and at Adenosine receptor A1 were 12.5 nM and 556 nM, respectively. Further, the inhibition on Adenosine receptor A2a [1] amounted to 9%. The result in assay [2] was inactive. Besides, in assay [3], the Activity came out at 104%.

Take `CCC(=O)N1Cc2nc(-c3ccccc3)nn2-c2cc(C)ccc21`: the Ki at Adenosine receptor A3 stood at 6.5 nM; on Adenosine receptor A1, 134 nM. Besides, at Adenosine receptor A2a [1], the inhibition came to 33%. The result in assay [2] was inactive. For the same compound, the Activity in assay [3] worked out at 68.6%.

Turning to `COc1ccc(-c2ncn(-c3cc(C)ccc3NC(=O)OCc3ccccc3)n2)cc1`, the inhibition was 47% in assay [5], 2% in assay [4] and 7% at Adenosine receptor A2a [1].

For `CCCOC(=O)N1Cc2nc(-c3ccccc3)nn2-c2cc(C)ccc21`, the Ki came out at 171 nM at Adenosine receptor A3 and 565 nM on Adenosine receptor A1. Also, at Adenosine receptor A2a [1], the inhibition was determined as 56%.

Compound `COc1ccc(-c2nc(NC(=O)Nc3ccccc3)n(-c3ccccc3)n2)cc1` registered a Ki on Adenosine receptor A3 of 545 nM. In addition, the inhibition in assay [4] amounted to 1%; at Adenosine receptor A2a [1], 7%.

Take `CCOC(=O)N1Cc2nc(-c3ccccc3)nn2-c2cc(Cl)ccc21`: the inhibition constant (Ki) at Adenosine receptor A3 was determined as 166 nM.

On to `COc1ccc(-c2ncn(-c3cc(C)ccc3NC(=O)Cc3ccccc3)n2)cc1`, for which the inhibition in assay [5] was 45%; in assay [4], 44%; on Adenosine receptor A2a [1], 1%.

In the case of `COC(=O)N1Cc2nc(-c3ccccc3)nn2-c2cc(C)ccc21`, the Ki at Adenosine receptor A3 came to 31.9 nM; on Adenosine receptor A1, 1480 nM. In addition, the inhibition at Adenosine receptor A2a [1] is 32%. In addition, the outcome in assay [2] was inactive. The Activity in assay [3] was determined as 74.9%.
